The source made the active and inactive calls. The rule behind the calls is not given here.
What was measured:
[1] = target: T1, Peroxisome proliferator-activated receptor alpha (Homo sapiens) (UniProt Q07869); assay: Transactivation of PPAR-alpha transfected in HEK293 cells at 10 uM after 24 hrs by luciferase reporter gene assay; format: cell-based
T1 sequence (whole entry): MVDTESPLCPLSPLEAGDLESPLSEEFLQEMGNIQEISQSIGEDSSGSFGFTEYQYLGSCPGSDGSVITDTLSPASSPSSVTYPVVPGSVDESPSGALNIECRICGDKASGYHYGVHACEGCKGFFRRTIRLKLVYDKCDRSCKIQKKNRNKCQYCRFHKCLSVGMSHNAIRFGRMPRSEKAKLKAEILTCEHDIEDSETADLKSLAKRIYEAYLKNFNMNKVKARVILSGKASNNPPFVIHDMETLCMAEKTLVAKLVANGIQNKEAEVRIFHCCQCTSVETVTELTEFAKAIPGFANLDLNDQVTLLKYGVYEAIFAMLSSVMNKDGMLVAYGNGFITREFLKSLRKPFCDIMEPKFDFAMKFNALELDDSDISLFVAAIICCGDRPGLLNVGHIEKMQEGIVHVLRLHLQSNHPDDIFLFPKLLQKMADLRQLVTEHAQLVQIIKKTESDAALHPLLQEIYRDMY

[2] = tested on: HepG2; assay: Upregulation of SREBP-1 gene expression in human HepG2 cells at 1 uM by immunoblot analysis; format: ADME, cell-based; conditions: hepg2, 1 µM
[3] = tested on: HepG2; assay: Upregulation of SCD1 gene expression in human HepG2 cells at 1 uM by qPCR analysis; format: ADME, cell-based; conditions: hepg2, 1 µM
[4] = tested on: HepG2; assay: Upregulation of FAS gene expression in human HepG2 cells at 1 uM by qPCR analysis; format: ADME, cell-based; conditions: hepg2, 1 µM
[5] = tested on: HepG2; assay: Upregulation of SREBP-1 gene expression in human HepG2 cells at 1 uM by qPCR analysis; format: ADME, cell-based; conditions: hepg2, 1 µM
[6] = tested on: HepG2; assay: Induction of lipid accumulation in human HepG2 cells assessed as increase in cellular triglyceride level at 1 uM by Oil Red O staining relative to control; format: cell-based; conditions: hepg2, 1 µM
[7] = tested on: HepG2; assay: Induction of lipid accumulation in human HepG2 cells assessed as cellular triglyceride concentration at 1 uM; format: cell-based; conditions: hepg2, 1 µM

| Activity [1] | Compound | Activity [2] | Activity [3] | Activity [4] | Activity [5] | Activity [6] | Activity [7] |
| --- | --- | --- | --- | --- | --- | --- | --- |
| Active | CC(C)(Oc1ccc(C(=O)c2ccc(Cl)cc2)cc1)C(=O)O | – | – | – | – | – | – |
| – | O=S(=O)(c1ccccc1)N(CC(F)(F)F)c1ccc(C(O)(C(F)(F)F)C(F)(F)F)cc1 [T091317] | Toxic | Toxic | Toxic | Toxic | Toxic | Toxic |

Reference: ChEMBL document CHEMBL2203118, “Ethyl 2,4,6-trihydroxybenzoate is an agonistic ligand for liver X receptor that induces cholesterol efflux from macrophages without affecting lipid accumulation in HepG2 cells” (Bioorg Med Chem Lett, 2012)
